Consider 18 compounds from PMC6278313.

For series [1], the system named is all tested receptors, transporters, and binding sites. The series can be described thus: NIMH-PDSP radioligand binding screen, whole panel. As to conditions: 10 μM; except the sites named for 17 and 27.
In series [2] the target is T1, COX-1 (Homo sapiens, UniProt P23219). The series can be described thus: COX-1 inhibition, human whole blood (Thromboxane B2 EIA).
Method: (§1) Thromboxane B2 EIA kit (COX-1) and Prostaglandin E2 EIA Kit (COX-2) were purchased from Cayman Chemicals, USA [45]. Blood from non-treated rhesus monkey and healthy human subjects was used with these ELISA kits to establish the inhibitory potencies (IC50’s) of test compounds for these enzymes [46]. Thromboxane, the product of COX-1, and prostaglandin E2, the product of COX2, were measured using 96-well plates and a UV spectrophotometer. The concentration-inhibition curves were fitted into a 4-parameter non-linear regression model in GraphPad Prism to calculate the IC50 of each test compound.
The target of series [3] is T2, COX-2 (Homo sapiens, UniProt P35354).
T2 construct: endogenous in cells; host or cells: fresh human whole blood
T2 sequence (P35354 18-604): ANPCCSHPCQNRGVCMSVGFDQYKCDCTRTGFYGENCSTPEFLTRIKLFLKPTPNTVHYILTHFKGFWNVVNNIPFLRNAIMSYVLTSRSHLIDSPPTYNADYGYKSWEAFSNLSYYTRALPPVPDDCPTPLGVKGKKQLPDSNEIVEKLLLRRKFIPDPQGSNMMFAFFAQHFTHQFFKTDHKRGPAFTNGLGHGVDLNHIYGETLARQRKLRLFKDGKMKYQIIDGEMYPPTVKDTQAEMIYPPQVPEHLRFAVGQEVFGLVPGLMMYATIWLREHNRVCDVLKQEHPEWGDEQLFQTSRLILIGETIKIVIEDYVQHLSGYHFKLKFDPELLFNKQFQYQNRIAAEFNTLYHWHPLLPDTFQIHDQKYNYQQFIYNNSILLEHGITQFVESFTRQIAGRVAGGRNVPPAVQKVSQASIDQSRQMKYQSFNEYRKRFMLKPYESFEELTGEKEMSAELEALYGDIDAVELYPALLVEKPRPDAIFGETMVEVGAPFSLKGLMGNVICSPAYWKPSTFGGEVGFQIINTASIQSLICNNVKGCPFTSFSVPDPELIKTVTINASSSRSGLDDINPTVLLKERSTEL
The series can be described thus: COX-2 inhibition, human whole blood (Prostaglandin E2 EIA). In kind it is cell-based.

The subject of a further series is human COX-2. The following applies: cited from earlier work; for Selectivity vs. COX-1: human whole blood, COX-2 over COX-1.
Series [4] concerns the target T3, COX-1 (Macaca mulatta, UniProt F6S984).
T3 sequence (F6S984 25-599): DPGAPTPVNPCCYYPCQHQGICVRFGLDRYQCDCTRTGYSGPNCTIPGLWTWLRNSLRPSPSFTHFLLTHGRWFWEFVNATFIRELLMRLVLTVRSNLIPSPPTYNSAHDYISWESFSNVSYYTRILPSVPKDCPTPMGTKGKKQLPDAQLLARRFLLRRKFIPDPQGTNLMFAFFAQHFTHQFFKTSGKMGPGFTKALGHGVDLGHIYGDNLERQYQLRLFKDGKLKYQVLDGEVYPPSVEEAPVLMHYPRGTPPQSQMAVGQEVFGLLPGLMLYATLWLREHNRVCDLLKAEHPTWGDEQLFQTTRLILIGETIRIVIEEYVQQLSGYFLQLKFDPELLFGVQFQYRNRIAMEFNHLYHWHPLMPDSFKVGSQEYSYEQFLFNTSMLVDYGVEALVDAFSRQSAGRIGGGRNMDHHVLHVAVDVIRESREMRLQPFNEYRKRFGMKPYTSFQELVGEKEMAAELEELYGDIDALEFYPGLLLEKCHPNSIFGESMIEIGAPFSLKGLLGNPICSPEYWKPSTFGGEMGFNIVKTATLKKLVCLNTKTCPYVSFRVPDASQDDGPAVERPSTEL
The series can be described thus: COX-1 inhibition, monkey whole blood (Thromboxane B2 EIA).
Method: as §1

For series [5], the target named is T4, COX-2 (Macaca mulatta, UniProt F7BWZ9).
T4 sequence (F7BWZ9 18-604): T2 sequence (P35354 18-604) with H7Y, F49L, A101V, L150F, S163T, N191K, A208D, R211H, T363N, G570R
The series can be described thus: COX-2 inhibition, monkey whole blood (Prostaglandin E2 EIA).
Method: as §1

For series [6], the target named is T1, COX-1. Set-up: endogenous in cells; host or cells: fresh human whole blood. The following applies: footnote c; SE <15%; read-out: IC50 COX-1 Human WB (literature); cited from earlier work.
Series [7] deals with COX-2. As to conditions: cited from earlier work.
Series [8] addresses COX-2. Further details: method as in literature cited in the text (18-30). The following applies: cited from earlier work.
Series [9] is described as follows: Measured logD of radioligands (n-octanol / sodium phosphate buffer). In kind it is physicochemical. As to conditions: n-octanol / sodium phosphate buffer 0.1 M pH 7.4; γ-counter. Here is the method:
cLogD (at pH 7.4) values were computed with Pallas for Windows software version 3.8 in default mode (CompuDrug International; Bal Harbor, FL, USA). The logD values of [^11C]17, [^18F]20, and [d2-^18F]27 were measured by a method that we have described previously. The radioactivity contents in the n-octanol and sodium phosphate buffer (0.1 M; pH 7.4) phases were determined with a γ-counter.

Where [10] appears, read: mean ± SD, triplicate unless d n = 1, e n = 2, read-out: IC50 COX-2 Human WB.
Setting [11] is: Table 1, human whole blood COX-2, SEM <15%, read-out: HWB IC50.
[12] abbreviates: footnote c, SE <15%, read-out: IC50 COX-2 Human WB (literature) (converted).
Setting [13] is: Chart 1, PET in vivo, ref literature cited in the text (18-30).
The mark [14] stands for this setting: Chart 1, ref literature cited in the text (18-30).

The structures appear in SMILES notation. Changes are numbered by the printed parent chain. Read-outs that look alike come from different tables or passages of the source.

T1 sequence (P23219 24-599): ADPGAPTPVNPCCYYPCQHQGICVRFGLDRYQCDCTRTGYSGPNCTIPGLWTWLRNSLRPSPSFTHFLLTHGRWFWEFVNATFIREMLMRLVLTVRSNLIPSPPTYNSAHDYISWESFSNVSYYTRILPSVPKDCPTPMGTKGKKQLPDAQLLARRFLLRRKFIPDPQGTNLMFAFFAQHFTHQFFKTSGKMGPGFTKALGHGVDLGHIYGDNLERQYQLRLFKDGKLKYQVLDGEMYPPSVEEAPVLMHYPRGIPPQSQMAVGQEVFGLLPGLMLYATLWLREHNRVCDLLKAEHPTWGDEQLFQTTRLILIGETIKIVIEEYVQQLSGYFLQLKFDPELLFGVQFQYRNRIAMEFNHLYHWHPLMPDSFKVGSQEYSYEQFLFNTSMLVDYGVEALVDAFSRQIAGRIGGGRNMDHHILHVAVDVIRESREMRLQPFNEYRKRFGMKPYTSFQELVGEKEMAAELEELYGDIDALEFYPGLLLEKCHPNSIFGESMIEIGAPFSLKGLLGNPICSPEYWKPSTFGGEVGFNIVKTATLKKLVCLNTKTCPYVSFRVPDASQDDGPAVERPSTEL

For the compound `CCOc1cc(NCc2cccs2)nc(-c2ccc(S(C)(=O)=O)cc2)n1` [Compound 18, 6-Ethoxy-2-(4-(methylsulfonyl)phenyl)-N-(thiophen-2-ylmethyl)pyrimidin-4-amine], the melting point is 169.2 to 170.4 °C. In addition, the “inhibition of radioligand binding at all tested receptors, transporters, and binding sites” value in series [1] is given as “less than 50%”. Besides, the IC50 against COX-1 [2] was greater than 10000 nM.

The compound `CCSc1cc(NCc2cccs2)nc(-c2ccc(S(C)(=O)=O)cc2)n1` [Compound 19, 6-Thioethyl-2-(4-(methylsulfonyl)phenyl)-N-(thiophen-2-ylmethyl)pyrimidin-4-amine] displayed a melting point of 160 to 162.1 °C. On COX-2 [3] (setting [10]), the IC50 worked out at 3.52 ± 0.43 nM. Besides, the IC50 with human COX-2 (setting [11]) was 1.2 nM. Further, the IC50 with human COX-2 (setting [12]) is 1.2 nM. For the same compound, the “Selectivity vs. COX-1” value in the series on human COX-2 was greater than 8403. Besides, the IC50 on COX-1 [2] was greater than 1000 nM. This compound came in with a concentration for half-maximal inhibition (IC50) against COX-1 [4] greater than 1000 nM. For the same compound, the IC50 against COX-2 [5] was determined as 52.3 ± 0.01 nM. On COX-1 [6], the IC50 is greater than 10000 nM.

`CS(=O)(=O)c1ccc(-c2nc(NCc3cccs3)cc(OCCF)n2)cc1` [Compound 20, 6-(2-Fluoroethoxy)-2-(4-(methylsulfonyl)phenyl)-N-(thiophen-2-ylmethyl)pyrimidin-4-amine] registered a melting point of 147.7 to 149.2 °C. At COX-2 [3] (setting [10]), the IC50 turned out to be 1.9 nM. This compound showed an IC50 at COX-2 [5] of 1.28 nM.

With `CSc1cc(NCc2cccs2)nc(-c2ccc(S(C)(=O)=O)cc2)n1` [Compound 21, 6-Thiomethyl-2-(4-(methylsulfonyl)phenyl)-N-(thiophen-2-ylmethyl)pyrimidin-4-amine], the melting point lay in the range of 159.1 to 160.4 °C. Besides, the 50% inhibitory concentration (IC50) at COX-2 [3] (setting [10]) is 2.65 ± 0.45 nM. This compound also returned an IC50 at COX-1 [2] greater than 1000 nM. For the same compound, the half-maximal inhibitory concentration (IC50) against COX-1 [4] was greater than 1000 nM. On COX-2 [5], this compound had an IC50 of 4.83 ± 2.31 nM.

`COc1cc(NCc2ccccc2)nc(-c2ccc(S(C)(=O)=O)cc2)n1` [Compound 22, N-Benzyl-6-methoxy-2-(4-(methylsulfonyl)phenyl)pyrimidin-4-amine] registered a melting point of 133.4 to 134.6 °C. On COX-2 [3], this compound displayed a concentration for half-maximal inhibition (IC50) of 7.35 ± 1.35 nM. The “Selectivity vs. COX-1” value in the series with human COX-2 is on record as >19,646. In the series on human COX-2 (read-out: HWB IC50), the IC50 was 5.1 nM. The IC50 in the series with human COX-2 (read-out: IC50 COX-2 Human WB (literature) (converted)) was 5.1 nM. The compound also gave an IC50 against COX-1 [2] greater than 1000 nM. This compound had an IC50 against COX-1 [4] greater than 1000 nM. Also, inhibition on COX-2 [5] was half-maximal at 14.6 ± 10.1 nM (IC50). Besides, the IC50 at COX-1 [6] is greater than 100000 nM.

On to `CS(=O)(=O)c1ccc(-c2nc(Cl)cc(NCc3ccccc3)n2)cc1` [Compound 23, N-Benzyl-6-chloro-2-(4-(methylsulfonyl)phenyl)pyrimidin-4-amine], for which the melting point is 130.4 to 131.4 °C. Moreover, at COX-1 [6], the IC50 is greater than 100000 nM.

On to `CS(=O)(=O)c1ccc(-c2nc(O)cc(NCc3ccccc3)n2)cc1` [Compound 24, 6-(Benzylamino)-2-(4-(methylsulfonyl)phenyl)pyrimidin-4-ol], for which the melting point is 287.9 to 289.2 °C. Besides, the “inhibitory potency for COX-2” value with human COX-2 is listed as “low inhibitory potency”. For the same compound, the IC50 against COX-1 [2] was greater than 1000 nM. Besides, at COX-1 [4], the IC50 is greater than 1000 nM. This compound also showed an IC50 against COX-2 [5] greater than 1000 nM. Besides, the IC50 on COX-1 [6] was greater than 100000 nM.

As for `CS(=O)(=O)c1ccc(-c2nc(Cl)cc(NCc3cccs3)n2)cc1` [Compound 25, 6-Chloro-2-(4-(methylsulfonyl)phenyl)-N-(thiophen-2-ylmethyl)pyrimidin-4-amine], the melting point was 170 to 171.2 °C. Moreover, in the series on human COX-2 (setting [11]), the IC50 was 1.2 nM. In the series on human COX-2 (setting [12]), the IC50 was 1.2 nM. This compound had an IC50 at COX-1 [2] greater than 10000 nM. For the same compound, at COX-1 [6], the IC50 is greater than 100000 nM.

Turning to `CS(=O)(=O)c1ccc(-c2nc(O)cc(NCc3cccs3)n2)cc1` [Compound 26, 2-(4-(Methylsulfonyl)phenyl)-6-(thiophen-2-yl-methylamino)pyrimidin-4-ol], the melting point lay within 261.7 to 263.2 °C. In the series with human COX-2, the “inhibitory potency for COX-2” value is listed as “low inhibitory potency”. For the same compound, the IC50 on COX-1 [6] was greater than 100000 nM.

For `CS(=O)(=O)c1ccc(-c2nc(F)cc(NCc3cccs3)n2)cc1` [Compound 29, 6-Fluoro-2-(4-(methylsulfonyl)phenyl)-N-(thiophen-2-ylmethyl)pyrimidin-4-amine], the melting point fell in the range of 130.4 to 131.4 °C. At COX-2 [3] (setting [10]), the IC50 is 2.5 nM.

With `CN(Cc1cccs1)c1cc(Cl)nc(-c2ccc(S(C)(=O)=O)cc2)n1` [Compound 30, 6-Chloro-N-methyl-2-(4-(methylsulfonyl)phenyl)-N-(thiophen-2-ylmethyl)pyrimidin-4-amine], the IC50 on COX-2 [3] (setting [10]) is greater than 1000 nM. Further, the “inhibition of radioligand binding at all tested receptors, transporters, and binding sites” value in series [1] is listed as “less than 50%”.

Take `[11CH3]Oc1ccc(-c2cc(C(F)(F)F)nn2-c2ccc(S(N)(=O)=O)cc2)cc1` [[^11C]2]: the brain entry result with COX-2 [7] (setting [13]) is on record as “Low brain penetration”.

`[11CH3]S(=O)(=O)c1ccc(C2=C(c3ccccc3)C(=O)OC2)cc1` [[^11C]4, [^11C]rofecoxib]: in the series on COX-2 [7] (in vivo), the brain entry entry was “Low brain entry”, the “brain entry (SUV)” value is reported as 0.26 SUV and the “specific signal / specific binding in vivo” value is given as “No specific binding in rat inflammatory models”.

For `[11CH3]Oc1ccc(-c2cncn2-c2ccc(S(N)(=O)=O)cc2)cc1` [[^11C]6], the Ki at COX-2 [8] (setting [14]) was 5 nM. In addition, the brain entry result with COX-2 [7] (setting [13]) was “Low brain uptake”.

Regarding `[11CH3]Oc1ccc(-c2c(-c3ccc(S(N)(=O)=O)cc3)[nH]c3ccccc23)cc1` [[^11C]7], the brain entry result in the series on COX-2 [7] (setting [13]) is listed as “Low rat brain uptake”.

Compound `CS(=O)(=O)c1ccc(-c2nc(NCc3cccs3)cc(O[11CH3])n2)cc1` [[^11C]17] gave a logD in [9] of 3.74 ± 0.02.

As to `Cc1ccc(-c2cc(C(F)(F)F)nn2-c2ccc(S(=O)(=O)Nc3cccc([18F])c3)cc2)cc1` [[^18F]3], the inhibition constant Ki at COX-2 [8] (setting [14]) was 250 nM.

In the case of `NS(=O)(=O)c1ccc(-c2c(-c3ccccc3)noc2C[18F])cc1` [[^18F]5], on COX-2 [8], the Ki was 2 nM. In the series with COX-2 [7] (in vivo), the brain entry result is “Some brain entry”, the defluorination in vivo result is “Rapidly defluorinated” and the “specific signal / specific binding in vivo” value is listed as “No brain specific signal”.
